Values quoted from earlier work, collected in patent US20100136095A1, “Systems for modulating inflammation” (Searete LLC, a limited liability corporation of the State …, priority 2008, published 2010).

Experiments:
[1] = test system: Src family kinases (Src, Lck, Yes, Fyn); settings: at nanomolar concentrations
lethal septic shock = settings: mice
proteasome = settings: cultured breast cancer cells; disulfiram bound to copper
[2] = infused at 400 mg over one hour, single agent

In the case of CCN(CC)CCCC(C)Nc1ccnc2cc(Cl)ccc12 (centres unmarked) [Chloroquine], the “inhibition of CpG-induced Src family kinase activation or its dependent cellular responses” value (Src family kinase) is given as “does not inhibit”.
In the case of Cc1nc(Nc2ncc(C(=O)Nc3c(C)cccc3Cl)s2)cc(N2CCN(CCO)CC2)n1.O [Dasatinib, N-(2-chloro-6-methylphenyl)-2-[[6-[4-(2-hydroxyethyl)-1-piperazinyl]-2-methyl-4-pyrimidinyl]amino]-5-thiazolecarboxamide, monohydrate], the “inhibition of Src family kinases (Src, Lck, Yes, Fyn)” value [1] is listed as “inhibits”.
In the case of Cl.Cl.Nc1ccccc1Oc1ccc2c(N)nsc2c1 [Example M62812, 3-amino-6-(2-aminophenoxy)-1,2-benzisothiazole dihydrochloride], the “prevention of lethal septic shock” value (lethal septic shock) is listed as “prevents lethal septic shock”.
For CCN(CC)C(=S)SSC(=S)N(CC)CC [Disulfiram, 1-(diethylthiocarbamoyldisulfanyl)-N,N-diethyl-methanethioamide], the proteasomal activity (proteasome) is listed as “inhibits proteasomal activity”.
For CCN(CC)CCCC(C)Nc1ccnc2cc(Cl)ccc12.O=P(O)(O)O.O=P(O)(O)O (centres unmarked) [Chloroquine phosphate, 7-chloro-4-[[4-(diethylamino)-1-methylbutyl]amino]quinoline phosphate (1:2)], the tolerability of infusion [2] is given as “without complication”.
